Results on four compounds are retold here after patent US6747050B1, “Isoxazoline derivative and a process for the preparation thereof” (LG Chem Investment Ltd., priority 1999, dated 2004).

In experiment [1] the test system is caspase-3-like activity (Ac-DEVD-pNA). Briefly: Caspase-3-like activity in TNFα/ActD-treated primary rat hepatocytes. The following applies: 100 μM, 8 hrs. It is filed as cell-based. The method, then: Primary rat hepatocytes were isolated and purified from male Sprague-Dawley rats using a collagenase digestion method. The hepatocytes were purified over 30% Percoll gradient by centrifugation at 1,000×g for 10 min. at 4° C. […] The cells were plated on collagen-coated tissue culture plates at a density of 2×10^5 cells/well in 12-well plates for cell viability analysis or 5×10^6 cells/100 mm dish for enzyme assays. After 18 hrs preculture, the cells were treated with 2,000 units/ml TNFα and 0.2 μg/ml Actinomycin (ActD). Caspase activity and cell viability was determined by colorimetry using a caspase substrate Ac-DEVD-pNA and crystal violet staining method at 8 hrs and 12 hrs, respectively.

Experiment [2] has as its system C57BL/6 female mice. Kind of experiment: anti-Fas antibody (Jo2)-induced liver apoptosis and lethality in mice. It is filed as in vivo. The method, then: (§1) […] C57BL/6 female mice (18-20 g) were injected i.p. with compound 33MP dissolved in vehicle which consists of olive oil and 10% DMSO, or vehicle alone, at 1 hr before i.v. injection with 10 μg of Anti-Fas antibody (Jo2). Following 4 hrs of i.v. injection with Jo2 antibody, animals were placed under inhaled isoflurane anesthesia for blood collection and liver isolation. Mice were also i.p. injected with 0.2 μg/20 g of TNFα and 12 mg/20 g of D-galactosamine (TNFα/GalN) and compound 33MP or its salt form (Compound 33MP-Na). 8 hrs later, blood and liver tissues were isolated from anesthetized animals. The liver tissues were snap-frozen and stored at −80° C. until use. Plasma was isolated from blood by centrifugation at 12,000×g for 10 min at 4° C. and stored at −80° C. In some experiments for animal mortality, mice were i.p. injected with TNFα/GalN and caspase inhibitor was injected 1 hr before, simultaneously, 2 hrs, or 4 hrs after TNFα/GalN injection
(§2) Whole tissues (0.5 g) were homogenated in ice-cold lysis buffer (5 mM Tris, 20 mM EDTA, 0.5% Triton-X 100, pH8.0). […] The supernatant was obtained and extracted twice with a mixture of phenol and chloroform. One-tenth volume of 3 M sodium acetate was added to the solution, and DNA was precipitated by adding an equal volume of isopropanol. After storing at −20° C. overnight, a DNA pellet was obtained by centrifugation at 12,000×g for 15 min. at 4° C. and washed twice with 75% ethanol. The pellet was dried and resuspended in 100 μl of 20 mM Tris-HCl, pH 8.0. After digesting RNA with DNase-free RNase (0.1 mg/ml, at 37° C. for 1 hr, samples […] were electrophoresed through a 1.2% agarose gel in 450 mM Tris borate+EDTA (TBE), pH 8.0 buffer. DNA was photographed under visualized with UV light.
(§3) Liver tissues were homogenated in 10 mM HEPES buffer containing protease inhibitors (5 μg/ml aprotinin, 5 μg/ml pepstatin A, 10 μg/ml leupeptin, and 0.5 mM PMSF) and lysed by three feeze/thaw cycles. […] Protein concentration was determined with BCA protein assay reagent (pierce, Rockford, Ill.). Cytosol containing 200 μg protein was combined in 96-well plate with […] of synthetic substrate Ac-DEVD-pNA in 150 μl of 100 mM HEPES, pH 7.4, containing the protease inhibitors, and the reaction was conducted for 1 hr at 37° C. […] Plasma level of aspartate aminotransferase (AST) was analyzed by spectrophotometry using each enzyme assay kit (Sigma).

The subject of experiment [3] is C57BL/6 female mice. Kind of experiment: TNFα-induced liver toxicity and lethality in mice. It is filed as in vivo. The conditions noted are these: TNFα/ActD. The method, then:
as §1, with “Mice were also i.p. injected with 0.2 μg/20 g of TNFα and 12 mg/20 g of D-galactosamine (TNFα/GalN) and compound 33MP or its salt form (Compound 33MP-Na).” left out
as §2, §3

Another experiment concerns the target T1, caspase-1 (Homo sapiens, UniProt P29466).
T1 construct: made in house; host or cells: transformed bacterium (pET vector)
T1 sequence (P29466 120-297 limits assumed): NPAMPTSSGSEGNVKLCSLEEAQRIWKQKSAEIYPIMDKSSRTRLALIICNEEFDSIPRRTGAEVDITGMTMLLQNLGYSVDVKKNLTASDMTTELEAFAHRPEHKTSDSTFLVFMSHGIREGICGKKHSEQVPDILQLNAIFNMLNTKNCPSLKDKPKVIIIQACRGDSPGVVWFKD
T1 sequence (P29466 317-404 limits assumed): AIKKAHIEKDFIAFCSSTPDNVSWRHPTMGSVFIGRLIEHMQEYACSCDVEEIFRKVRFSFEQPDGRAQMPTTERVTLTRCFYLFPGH
Briefly: Recombinant caspase enzyme inhibition, fluorogenic substrate Ac-YVAD-AMC. It is filed as biochemical. The conditions noted are these: Irreversible Inhibitors; read-out: Kobs/[I] for caspase-1. The method, then:
(§4) In the present experiment recombinant caspases were purified from a transformed bacterium after human caspase genes were cloned into the expression vector pET, and then used in the experiment (Thornberry, N. A. et al. Nature, 1992, 356, 768. Thornberry, N. A. Methods in Enzymology, 1994, 615.).
(§5) Enzymatic activity was measured by a known procedure (Walker N. P. C. et al., Cell 1994, 78, 343). Briefly, 10 ng of recombinant protein was mixed with 50 mM Tris(pH 7.0), 1 mM DTT, 0.5 mM EDTA, 10% Glycerol buffer containing 1˜100 μM of enzyme substrate, Ac-YVAD-AMC or Ac-DEVD-AMC and then the changes by isolated AMC at 37° C. were recorded. The inhibitory activity for caspases was calculated from the early enzyme reaction rate by measuring the changes with fluorescence excited at […] and emitted at 460 nm (Range; Ki<100 nM).

A further experiment deals with T2, caspase-3 (Homo sapiens, UniProt P42574).
T2 construct: made in house; host or cells: transformed bacterium (pET vector)
T2 sequence (P42574 29-175 limits assumed): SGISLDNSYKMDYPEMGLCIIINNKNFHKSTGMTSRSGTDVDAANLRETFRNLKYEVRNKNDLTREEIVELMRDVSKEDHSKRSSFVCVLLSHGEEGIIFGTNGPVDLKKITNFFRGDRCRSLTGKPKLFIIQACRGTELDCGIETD
T2 sequence (P42574 176-277 limits assumed): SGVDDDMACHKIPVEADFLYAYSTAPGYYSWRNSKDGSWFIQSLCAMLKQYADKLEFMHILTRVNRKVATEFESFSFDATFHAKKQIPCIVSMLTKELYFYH
Kind of experiment: Recombinant caspase enzyme inhibition, fluorogenic substrate Ac-DEVD-AMC. The conditions noted are these: Irreversible Inhibitors; read-out: Kobs/[I] for caspase-3. It is filed as biochemical. The method, then:
as §4, §5

Turning to `CC(C)[C@H](NC(=O)c1cccc2ccccc12)C1=NOC(Cc2ccccc2)(C(=O)N[C@@H](CC(=O)O)C(=O)COC(=O)c2c(Cl)cccc2Cl)C1` (stereo partly drawn) [Compound 33MP, (3S)-3-{3-[2-Methyl-(1S)-1-(1-naphthalenecarbonylamino)-propyl]-5-phenylmethyl-4,5-dihydro-isoxazole-5-carbonylamino}-4-keto-5-(2,6-dichlorobenzoyloxy)-pentanoic Acid], the “caspase-3-like activity increased by TNFα/ActD (FIG. 15A)” value in experiment [1] is “not different”. Moreover, the “liver apoptosis determined by DNA fragmentation (FIG. 9A)” value in the experiment with C57BL/6 female mice [2] (0.4 mg/20 g, 1 mg/20 g i.p. 1 hr before antibody, 4 hrs) is “suppressed the liver apoptosis in a dose-dependent manner”. The “release of liver enzyme AST (FIG. 9B)” value in the experiment on C57BL/6 female mice [2] (4 hrs after anti-Fas antibody) is “significantly suppressed”. The “caspase-3-like activity in liver tissues (FIG. 10)” value with C57BL/6 female mice [2] (anti-Fas antibody increased activity about 25-folds) is recorded as “abrogated”. Besides, in the experiment on C57BL/6 female mice [2] (mouse, in vivo), the “inhibition of mortality compared with Z-VAD-fmk” value is recorded as “more effective”, the “suppression of AST release compared with Z-VAD-fmk” value is reported as “higher” and the “suppression of liver apoptosis compared with Z-VAD-fmk” value was “higher”. In the experiment on C57BL/6 female mice [2] (within 24 hrs, antibody alone 85% died), the “reduction of mortality (FIG. 11)” value is reported as “about 30%”. Moreover, in the experiment on C57BL/6 female mice [3], the “DNA fragmentation in liver tissues (FIG. 12A)” value was “significantly reduced”, the “caspase-3-like activity in liver (FIG. 13)” value was “suppressed”, the “inhibitory effect on caspase activity compared with Z-VAD-fmk” value was “higher” and the “protective effect compared with Z-VAD-fmk” value is “higher”. For the same compound, the “release of AST (FIG. 12B)” value with C57BL/6 female mice [3] was “suppressed”.
As for `CC(C)[C@H](NC(=O)c1cc2ccccc2[nH]1)C1=NOC(Cc2ccccc2)(C(=O)N[C@@H](CC(=O)O)C(=O)COC(=O)c2c(Cl)cccc2Cl)C1` (stereo partly drawn) [Compound 64, (3S)-3-{3-[2-Methyl-(1S)-1-(indole-2-carbonylamino)-propyl]-5-phenylmethyl-4,5-dihydro-isoxazole-5-carbonylamino}-4-keto-5-(2,6-dichlorobenzoyloxy)-pentanoic Acid], the kinact/KI came to 707000 M⁻¹ s⁻¹ at caspase-1 and 1230 M⁻¹ s⁻¹ at caspase-3.
`CC(C)[C@H](NC(=O)c1c[nH]c2ccccc12)C1=NOC(Cc2ccccc2)(C(=O)N[C@@H](CC(=O)O)C(=O)COC(=O)c2c(Cl)cccc2Cl)C1` (stereo partly drawn) [Compound 66, (3S)-3-{3-[2-Methyl-(1S)-1-(indole-3-carbonylamino)-propyl]-5-phenylmethyl-4,5-dihydro-isoxazole-5-carbonylamino}-4-keto-5-(2,6-dichlorobenzoyloxy)-pentanoic Acid]: the figures for the kinact/KI on caspase-1 and at caspase-3 were 357000 M⁻¹ s⁻¹ and 1560 M⁻¹ s⁻¹, respectively.
In the case of `CC(C)[C@H](NC(=O)c1cccc2ccccc12)C1=NOC(C)(C(=O)N[C@@H](CC(=O)O)C(=O)COC(=O)c2c(Cl)cccc2Cl)C1` (stereo partly drawn) [Compound 68, (3S)-3-{3-[2-Methyl-(1S)-1-(naphthalene-1-carbonylamino)-propyl]-5-methyl-4,5-dihydro-isoxazole-5-carbonylamino}-4-keto-5-(2,6-dichlorobenzoyloxy)-pentanoic Acid], the kinact/KI on caspase-1 turned out to be 616000 M⁻¹ s⁻¹; at caspase-3 it was 2390 M⁻¹ s⁻¹.
